Data: US5391571A, “Cholesterol ester hydrolase inhibitors” (priority 1993, dated 1995)

Assays:
cholesterol absorption = assay: in vivo cholesterol absorption study, serum radioactivity after oral [4-^14C] cholesterol; conditions: Rattus norvegicus, 6 h, normal rats, serum radioactivity at six hours; for ED50: read-out: ED50 (effective dose inhibiting fifty percent of the cholesterol absorption of the control animals)
Description: The in vivo cholesterol absorption studies were conducted in normal rats by oral administration of the compound being tested in propylene glycol and olive oil followed by oral administration of [4-^14 C] cholesterol in propylene glycol and olive oil, otherwise following the procedure of Cayen et al., J. Lipid Res. 20 162 (1979). The serum radioactivity was measured at six hours after dosing. The results of this study are reported in the following Table, where available, as percent decrease compared to control and in terms of the effective dose (ED50) inhibiting fifty-percent of the absorption of the control animals.

[1] = molecular target: T1, cholesterol esterase (EC 3.1.1.13) (Bos taurus, UniProt P30122); assay: in vitro inhibition of cholesteryl ester formation by cholesterol esterase; format: biochemical, bovine; conditions: for IC50: 37° C., cholesterol and oleic acid, cholesterol esterase from bovine pancreas, read-out: IC50 (concentration that inhibits one-half of the ester formation)
T1 construct: purchased Sigma Chemical Company, St. Louis, Mo., USA C-1892; host or cells: bovine pancreas
Description: The ability of the compounds of this invention to inhibit the formation of cholesteryl esters and thereby interfere with and prevent assimilation of cholesterol into the lymphatic system and ultimately the blood stream was established by incubating the compounds at 37° C. with a mixture of cholesterol and oleic acid in the presence of buffered cholesterol esterase [(EC 3.1.1.13) Sigma Chemical Company, St. Louis, Mo., USA, No. C-1892, from bovine pancreas] and measuring the amount of ester formed, according to the procedure of Field, J. of Lipid Research, 25 389 (1984).

[2] = vs control, read-out: Decrease in [^14C] Cholesterol Absorption

T1 sequence (P30122 19-597): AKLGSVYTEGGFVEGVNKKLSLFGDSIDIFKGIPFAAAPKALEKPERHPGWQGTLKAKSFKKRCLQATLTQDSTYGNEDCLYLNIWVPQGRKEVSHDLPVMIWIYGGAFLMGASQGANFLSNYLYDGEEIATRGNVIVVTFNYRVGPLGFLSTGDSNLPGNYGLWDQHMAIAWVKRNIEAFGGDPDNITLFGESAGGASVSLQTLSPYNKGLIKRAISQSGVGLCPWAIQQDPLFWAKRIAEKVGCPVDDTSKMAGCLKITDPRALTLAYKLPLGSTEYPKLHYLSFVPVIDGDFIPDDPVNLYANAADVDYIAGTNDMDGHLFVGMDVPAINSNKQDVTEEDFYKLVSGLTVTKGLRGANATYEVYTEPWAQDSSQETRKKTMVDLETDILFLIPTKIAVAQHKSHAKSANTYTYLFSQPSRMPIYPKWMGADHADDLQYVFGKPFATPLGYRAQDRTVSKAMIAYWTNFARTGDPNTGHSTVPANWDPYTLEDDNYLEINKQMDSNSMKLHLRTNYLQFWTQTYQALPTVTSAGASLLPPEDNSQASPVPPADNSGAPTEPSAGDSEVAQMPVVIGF

| SMILES | IC50 [1] [µM] | other results |
| --- | --- | --- |
| CCCCNC(=O)Oc1ccc(Oc2ccccc2)cc1 [Example 1, Butylcarbamic acid 4-phenoxyphenyl ester] | 2 | inhibition in vivo at 100 mg/kg (cholesterol absorption; [2]): 82%; ED50 (cholesterol absorption): 24 mg/kg |
| O=C(Oc1ccc(Oc2ccccc2)cc1)N1CCCCC1 [Example 2, 1-Piperidinecarboxylic acid 4-phenoxyphenyl ester] | 0.13 | inhibition in vivo at 100 mg/kg (cholesterol absorption; [2]): 82%; ED50 (cholesterol absorption): 24 mg/kg |
| O=C(NCCCCc1ccccc1)Oc1ccc(Oc2ccccc2)cc1 [Example 3, (4-Phenylbutyl)carbamic acid 4-phenoxyphenyl ester] | 16 | inhibition in vivo at 10 mg/kg (cholesterol absorption; 10 mg/kg, vs control, read-out: Decrease in [^14C] Cholesterol Absorption): 70%; ED50 (cholesterol absorption): 6 mg/kg |
| CC(C)CCCC(C)NC(=O)Oc1ccc(Oc2ccccc2)cc1 (stereo not shown) [Example 4, (1,5-Dimethylhexyl)carbamic acid 4-phenoxyphenyl ester] | 5 | inhibition in vivo at 100 mg/kg (cholesterol absorption; [2]): 89%; ED50 (cholesterol absorption): 13 mg/kg |
| O=C(Oc1ccc(Oc2ccccc2)cc1)N1CCC(c2ccccc2)CC1 [Example 5, 4-Phenyl1-piperidinecarboxylic acid 4-phenoxyphenl ester] | 33 | – |
| O=C(Oc1ccc(Oc2ccccc2)cc1)N1CCN(c2ccccc2)CC1 [Example 6, 4-Phenyl-1-piperazinecarboxylic acid 4-phenoxyphenyl ester] | 55 | – |
| O=C(Oc1ccc(Oc2ccccc2)cc1)N1CCOCC1 [Example 7, 4-Morpholinecarboxylic acid 4-phenoxyphenol ester] | 85 | – |
| CC1CCN(C(=O)Oc2ccc(Oc3ccccc3)cc2)CC1 [Example 8, 4-Methyl-1-piperidinecarboxylic acid 4-phenoxyphenyl ester] | – | inhibition in vivo at 65 mg/kg (cholesterol absorption; [2]): 90%; ED50 (cholesterol absorption): 10 mg/kg |
| CN1CCN(C(=O)Oc2ccc(Oc3ccccc3)cc2)CC1 [Example 9, 4-Methyl-1-piperazinecarboxylic acid 4-phenoxyphenyl ester] | > 100 | inhibition in vivo at 100 mg/kg (cholesterol absorption; [2]): 40% |
| O=C(Oc1ccc(Oc2ccccc2)cc1)N1CCSCC1 [Example 10, 4-Thiomorpholinecarboxylic acid 4-phenoxyphenyl ester] | 1.1 | inhibition in vivo at 65 mg/kg (cholesterol absorption; [2]): 74%; ED50 (cholesterol absorption): 14 mg/kg |
| CCCCCCCCNC(=O)Oc1ccc(Oc2ccccc2)cc1 [Example 11, Octylcarbamic acid 4phenoxyphenyl ester] | 20 | – |
| O=C(Oc1ccc(Oc2ccccc2)cc1)N1CCCC1 [Example 12, 1-Pyrrolidinecarboxylic acid 4-phenoxyphenyl ester] | 0.3 | inhibition in vivo at 65 mg/kg (cholesterol absorption; [2]): 43% |
| O=C(NC1CCCCC1)Oc1ccc(Oc2ccccc2)cc1 [Example 13, Cyclohexylcarbamic acid 4-phenoxyphenyl ester] | 6.7 | – |
| O=C(NCC1CCCCC1)Oc1ccc(Oc2ccccc2)cc1 [Example 14, Cyclohexylmethylcarbamic acid 4phenoxyphenyl ester] | 9.3 | – |
| O=C(NC12CC3CC(CC(C3)C1)C2)Oc1ccc(Oc2ccccc2)cc1 [Example 15] | 17.5 | inhibition in vivo at 100 mg/kg (cholesterol absorption; [2]): 76% |
| CC(C)(C)CC(C)(C)NC(=O)Oc1ccc(Oc2ccccc2)cc1 [Example 16, (1,1,3,3-Tetramethylbutyl)carbamic acid 4-phenoxyphenyl ester] | > 100 | – |
| CCCCC(CC)NC(=O)Oc1ccc(Oc2ccccc2)cc1 (stereo not shown) [Example 17, (1-Ethylpentyl)carbamic acid 4-phenoxyphenyl ester] | 13.3 | – |
| CC(C)CC(C)NC(=O)Oc1ccc(Oc2ccccc2)cc1 (stereo not shown) [Example 18, (1,3-Dimethylbutyl)carbamic acid 4phenoxyphenyl ester] | 16.5 | – |
| CCCCNC(=O)Oc1ccc(Oc2ccc(C)cc2)cc1 [Example 19, Butylcarbamic acid 4-(4-methylphenoxy)phenyl ester] | 5.4 | – |
| CCCCNC(=O)Oc1ccc(Oc2ccc([N+](=O)[O-])cc2)cc1 [Example 20, Butylcarbamic acid 4-(4-nitrophenoxy)phenyl ester] | 7.6 | inhibition in vivo at 65 mg/kg (cholesterol absorption; [2]): 27% |
| CCCCNC(=O)Oc1ccc(Oc2ccc(Cl)cc2)cc1 [Example 21, Butylcarbamic acid 4-(4-chlorophenoxy)phenyl ester] | 6.1 | – |
| CCCCNC(=O)Oc1c(C)cc(Oc2ccc(C)cc2)cc1C [Example 22, Butylcarbamic acid 2,6-dimethyl-4-(4-methylphenoxy)phenyl ester] | – | inhibition at 30 µM ([1]; at 30 μM): 20% |

| SMILES | IC50 [1] [µM] | other results |
| --- | --- | --- |
| Cc1ccc(Oc2ccc(OC(=O)N3CCC(C)CC3)cc2)cc1 [Example 23, 4-Methyl-1-piperidinecarboxylic acid 4-(4-methylphenoxy)phenyl ester] | 0.27 | inhibition in vivo at 65 mg/kg (cholesterol absorption; [2]): 43% |
| Cc1ccc(Oc2ccc(OC(=O)NC(C)CCCC(C)C)cc2)cc1 (stereo not shown) [Example 24, (1,5-Dimethylhexyl)carbamic acid 4-(4-methylphenoxy)phenyl ester] | 5.6 | – |
| CC1CCN(C(=O)Oc2ccc(Oc3ccc(Cl)cc3)cc2)CC1 [Example 25, 4-Methyl-1-piperidinecarboxylic acid 4-(4-chlorophenoxy)phenyl ester] | 0.17 | inhibition in vivo at 65 mg/kg (cholesterol absorption; [2]): 61% |
| CCCCCC(C)NC(=O)Oc1ccc(Oc2ccccc2)cc1 (stereo not shown) [Example 26] | 2.9 | – |
| CC(C)CCCC(C)NC(=O)Oc1ccc(Oc2ccc(Cl)cc2)cc1 (stereo not shown) [Example 27, (1,5-Dimethylhexyl)carbamic acid 4-(4-chlorophenoxy)phenyl ester] | 7.1 | – |
| CCCCNC(=O)Oc1ccc(Oc2ccccc2)cc1F [Example 28, Butylcarbamic acid 2-fluoro-4-phenoxyphenyl ester] | 1.9 | – |
| CCCCNC(=O)Oc1ccc(Oc2ccc(OC)cc2)cc1 [Example 29, Butylcarbamic acid 4-(4-methoxyphenoxy)phenyl ester] | 13 | – |
| COc1ccc(Oc2ccc(OC(=O)N3CCC(C)CC3)cc2)cc1 [Example 30, 4-Methyl-1-piperidinecarboxylic acid 4-(4-methoxyphenoxy)phenyl ester] | 1.2 | inhibition in vivo at 65 mg/kg (cholesterol absorption; [2]): 83% |
| COc1ccc(Oc2ccc(OC(=O)NC(C)CCCC(C)C)cc2)cc1 (stereo not shown) [Example 31, (1,5-Dimethylhexyl)carbamic acid 4-(4-methoxyphenoxy)phenyl ester] | 26 | – |
| CCCCNC(=O)Oc1ccc(Oc2ccc(C(C)(C)C)cc2)cc1 [Example 32, Butylcarbamic acid 4-[4-(1,1-dimethylethyl)phenoxy]phenyl ester] | > 100 | – |
| CCCCCCNC(=O)Oc1ccc(Oc2ccccc2)cc1 [Example 36, Hexylcarbamic acid 4-phenoxyphenyl ester] | 1.7 | – |
| CC(C)CCCC(C)NC(=O)Oc1ccc(Oc2ccccc2)cc1F (stereo not shown) [Example 37, (1,5-Dimethylhexyl)carbamic acid 2-fluoro-4-phenoxyphenyl ester] | 1.4 | – |
| CC1(C)CCN(C(=O)Oc2ccc(Oc3ccccc3)cc2)CC1 [Example 38, 4,4-Dimethyl-1piperidinecarboxylic acid 4-phenoxyphenol ester] | 0.23 | inhibition in vivo at 50 mg/kg (cholesterol absorption; [2]): 86% |
| CC1CCCN(C(=O)Oc2ccc(Oc3ccccc3)cc2)C1 (stereo not shown) [Example 39, 3-Methyl-1-piperidinecarboxylic acid 4-phenoxyphenyl ester] | 0.88 | inhibition in vivo at 50 mg/kg (cholesterol absorption; [2]): 73% |
| O=C(Oc1ccc(Oc2ccccc2)cc1)N1CCCCCC1 [Example 40, Hexahydro-1H-azepine-1-carboxylic acid 4-phenoxyphenyl ester] | 19 | – |
| CC1CCN(C(=O)Oc2ccc(Oc3ccccc3)cc2F)CC1 [Example 41, 4-Methyl-1-piperidinecarboxylic acid 2-fluoro-4-phenoxyphenyl ester] | 0.03 | inhibition in vivo at 50 mg/kg (cholesterol absorption; [2]): 73% |
| CCC1CCN(C(=O)Oc2ccc(Oc3ccccc3)cc2)CC1 [Example 42, 4-Ethyl-1-piperidinecarboxylic acid 4-phenoxyphenyl ester] | 0.05 | inhibition in vivo at 50 mg/kg (cholesterol absorption; [2]): 81% |
| CCOC(=O)C1CCN(C(=O)Oc2ccc(Oc3ccccc3)cc2)CC1 [Example 43, 1,4-Piperidinedicarboxylic acid 4-ethyl-1-(4phenoxyphenyl) diester] | 4.5 | inhibition in vivo at 50 mg/kg (cholesterol absorption; [2]): 60% |
| CCCCNC(=O)Oc1ccc(Oc2ccccc2)cc1C(=O)OC [Example 50] | 5.1 | – |
| O=C(Oc1ccc(Oc2ccccc2)cc1)N1CCC(CO)CC1 [Example 56, 4-(Hydroxymethyl)-1-piperidinecarboxylic acid 4-phenoxyphenyl ester] | 2.1 | – |
| O=C(Oc1ccc(Oc2ccccc2)cc1)N1CCC(CI)CC1 [Example 59, 4-(Iodomethyl)-1-piperidinecarboxylic acid 4-phenoxyphenyl ester] | 0.27 | – |
| CCCCCCN(CCCCCC)CC1CCN(C(=O)Oc2ccc(Oc3ccccc3)cc2)CC1 [Example 62, 4-(Dihexylaminomethyl)-1-piperidinecarboxylic acid 4-phenoxyphenyl ester] | 15 | – |
